Results on 23 compounds are retold here after ChEMBL document CHEMBL1201862, “PubChem BioAssay data set” (2004).

Structures are written as SMILES.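 Grown in 96-well plates, cells were treated for 48 hours with each compound at five concentrations. Insufficient inhibition: endpoint recorded as highest concentration tested. Abbreviation: GI50, concentration required for 50% inhibition of growth.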 Active and inactive are the calls of the source. Cut-off read from the data, not from the text of the source: active = GI50 up to about 1.1 µM and inactive = higher.

Experiment in all cases: NCI-60 cell line screen, 48 h
Test [1] relates to Hs-578T.
The subject of test [2] is MDA-N.
For test [3], the system named is BT-549.

Regarding `CCOC(=O)C(C(=O)OCC)C1C=CCC2c3ccccc3COCC21` (centres undefined), the GI50 in test [1] was 73.8 µM (inactive); in test [2], 40.7 µM (inactive); in test [3], 49 µM (inactive).
As to `C=CCn1c(-c2ccc(-c3cs/c(=N\N=O)n3CC=C)cc2)cs/c1=N\N=O`, the GI50 in test [1] is 45.9 µM (inactive); in test [2] it was > 100 µM (inactive); in test [3], > 100 µM (inactive).
Turning to `Cc1cc2cc3ccccc3cc2c(=O)[nH]1`, the GI50 in test [1], in test [2] and in test [3] was > 10 µM (inactive) throughout.
`COc1cc(C2SCC(=O)N2c2ccc(-n3c(-c4ccccc4)nc4ccccc4c3=O)cc2)ccc1O` (centres undefined): the results for the GI50 in test [1], in test [2] and in test [3] were 22.3 µM (inactive), > 100 µM (inactive) and > 100 µM (inactive), respectively.
Consider `c1ccc2c(c1)nc1n2C2CCC(C2)N1` (centres undefined), for which the GI50 in test [1], in test [2] and in test [3] was > 10 µM (inactive) in each case.
Consider `CCN(CC)CCNc1ccc2ncn3c4c(OC)cccc4c(=O)c1c23`, for which the GI50 is 11.6 µM (inactive) in test [1], 4.27 µM (inactive) in test [2] and > 10 µM (inactive) in test [3].
Turning to `c1cc(-c2cnc(-c3ccc4c(c3)CCCO4)o2)ccn1`, the GI50 in test [1] is 17.1 µM (inactive); in test [2] it was 14.7 µM (inactive); in test [3], 15.2 µM (inactive).
For `Nc1ccc2[nH]cc(CCC(=O)O)c2c1` the same measures were > 100 µM (inactive), > 100 µM (inactive) and > 100 µM (inactive).
In the case of `Cc1cc(Cl)ccc1OCC(=O)Nc1nc(N)nc(N)n1`, the GI50 in test [1], in test [2] and in test [3] was > 100 µM (inactive) throughout.
Take `S=C(S)NCNC(=S)S`: the GI50 in test [1] and in test [2] was > 100 µM (inactive) throughout.
Consider `Nc1nc(N)c2c(-c3ccccc3)ccnc2n1`, for which the GI50 in test [2] and in test [3] was > 100 µM (inactive) in each case.
As to `C[C@@H]1CC[C@]2(C(=O)O)CC[C@]3(C)C(=CC[C@@H]4[C@@]5(C)CC[C@H](O)C(C)(C)[C@@H]5CC[C@]43C)[C@@H]2[C@]1(C)O` [POMOLIC ACID], the GI50 is 3.52 µM (inactive) in test [1] and 14.4 µM (inactive) in test [3].
Regarding `O=C(OCc1ccccc1CN1CCOCC1)c1cccc(Br)c1`, the figures for the GI50 in test [1] and in test [3] were 29.9 µM (inactive) and 52.6 µM (inactive), respectively.
For the compound `c1ccc([P+](Cc2ccc(C[P+](c3ccccc3)(c3ccccc3)c3ccccc3)cc2)(c2ccccc2)c2ccccc2)cc1`, the GI50 in test [1] is 32.4 µM (inactive); in test [2], 31 µM (inactive).
`Cc1ccc(S(=O)(=O)[C@@H](Cl)[C@H]2N=C(Cl)NN=C2c2ccccc2)cc1`: the figures for the GI50 in test [2] and in test [3] were 26.1 µM (inactive) and 23.9 µM (inactive), respectively.
Take `CCCCCCCCCCCCc1ccsc1-c1ccc(-c2ccc(-c3sc(-c4cc(CCCCCCCCCCCC)c(-c5ccc(-c6ccc(-c7sccc7CCCCCCCCCCCC)s6)s5)s4)cc3CCCCCCCCCCCC)s2)s1`: the GI50 in test [1] and in test [3] was > 100 µM (inactive) throughout.
`CCn1c2ccccc2c2cc(Nc3cc(C)[nH]c(=O)n3)ccc21`: in test [2], the GI50 is 0.394 µM (active).
As for `Cc1sc2nc3n(c(=O)c2c1C)N=CN(c1ccccc1)C3`, the GI50 in test [2] and in test [3] was > 100 µM (inactive) each time.
As to `O=C1c2ccccc2C(=O)c2c1nc1ccccc1c2-c1cncc(-c2c3c(nc4ccccc24)C(=O)c2ccccc2C3=O)c1`, the GI50 in test [1] is 3.69 µM (inactive); in test [3], 11.4 µM (inactive).
For the compound `CCC(=N\NC(N)=S)/C(C)=N/O`, the GI50 in test [1] and in test [2] was > 100 µM (inactive) in each case.
As for `CCCCCCCCCCCCCCCCCC(=O)Nc1ccn(C2CCC(COP(=O)(O)O)O2)c(=O)n1` (centres undefined), the GI50 in test [1] and in test [3] was > 100 µM (inactive) throughout.
For `C=CCN1CC2CN=NC2(C#N)C1` (centres undefined), the GI50 in test [2] and in test [3] was > 100 µM (inactive) throughout.
As to `NCC1CCCCC1.O=C(O)NCC1CCCCC1`, the figures for the GI50 in test [2] and in test [3] were 15.9 µM (inactive) and 26.5 µM (inactive), respectively.
